Counter-ions that a name gives are not always drawn.
Legend:
CCR4 = biological target: T1, CCR4 (Homo sapiens, UniProt P51679); assay: [35S]-GTPγS SPA binding assay for CCR4 antagonist activity; format: biochemical; conditions: CCR4 expressing CHO membranes; human MDC at EC80; [35S]-GTPγS competition
T1 construct: expressed in transfected cells; host or cells: CHO cell membranes
T1 sequence (P51679 1-360): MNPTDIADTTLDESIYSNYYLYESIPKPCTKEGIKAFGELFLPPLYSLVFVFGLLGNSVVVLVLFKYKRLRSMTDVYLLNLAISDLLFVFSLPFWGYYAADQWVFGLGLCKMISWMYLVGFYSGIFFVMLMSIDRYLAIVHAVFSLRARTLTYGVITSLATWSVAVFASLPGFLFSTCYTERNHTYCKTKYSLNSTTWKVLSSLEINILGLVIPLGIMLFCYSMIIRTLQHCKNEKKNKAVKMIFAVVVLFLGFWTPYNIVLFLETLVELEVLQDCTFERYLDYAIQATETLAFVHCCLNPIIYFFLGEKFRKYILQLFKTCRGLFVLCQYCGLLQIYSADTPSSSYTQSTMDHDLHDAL
Procedure: [35S]-GTPγS SPA Binding Assays for CCR4 Antagonist Activity
Antagonist potency was determined by a radioligand [35S]-GTPγS competition assay. Briefly, CCR4 expressing CHO membranes were homogenised by passing through a 23G needle. These membranes were then adhered to WGA-coated Leadseeker SPA beads in assay buffer (20 mM HEPES, 10 mM MgCl2, 100 mM NaCl, 0.05% BSA, 40 ug/ml Saponin and pH adjusted to 7.4 using KOH 5M) to generate a 3 μg/well final assay concentration (FAC) membrane and 250 μg/well FAC bead, solution.
The bead/membrane/[35S]-GTPγS/Agonist suspension was dispensed into white Greiner polypropylene 384-well plates (45 μl/well), containing 0.5 μl of compound. […] Plates were then read on a Viewlux instrument and luminescence was then plotted as a percentage of the maximum inhibitional response elicited by an IC100 of a standard antagonist.

CD4+ CCR4+ T cells = assay: Chemokine stimulated increases in cellular F-actin content; format: cell-based; conditions: Homo sapiens, T-cell, 0.5 h; PBMC from normal volunteers; antagonist 30 min at 37° C. before agonist for 15 sec; F-actin content by flow cytometry; read-out: pA2 (converted)
In short: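 Human PBMC from citrated volunteer blood, stained for CD4 and CCR4, were pre-incubated with antagonist or vehicle (0.1% DMSO) for 30 min at 37 °C, then stimulated with agonist for 15 s and formaldehyde-fixed. F-actin was stained with phalloidin and read by flow cytometry as CD4+CCR4+ MFI relative to CD4+CCR4− cells.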

Structure (SMILES) | IC50 (CCR4) | Kb (CD4+ CCR4+ T cells)
COc1cccc2c1c(NS(=O)(=O)c1ccc(Cl)s1)nn2Cc1cccc(CNC(=O)[C@@H]2C[C@@H](F)CN2)c1 [Example 52, (4R)—N-[(3-{[3-{[(5-Chloro-2-thienyl)sulfonyl]amino}-4-(methyloxy)-1H-indazol-1-yl]methyl}phenyl)methyl]-4-fluoro-L-prolinamide trifluoroacetate] | 3.98 to 15.8 nM | ≤ 126 nM
COc1cccc2c1c(NS(=O)(=O)c1ccc(Cl)s1)nn2Cc1cccc(CNC(=O)C2CCOCC2)c1 [Example 43, N-[(3-{[3-{[(5-chloro-2-thienyl)sulfonyl]amino}-4-(methyloxy)-1H-indazol-1-yl]methyl}phenyl)methyl]tetrahydro-2H-pyran-4-carboxamide] | 3.98 to 15.8 nM | ≤ 126 nM
CC(=O)NCc1cccc(Cn2nc(NS(=O)(=O)c3ccc(Cl)s3)c3c(O)cccc32)c1 [Example 72, N-({3-[(3-{[(5-Chloro-2-thienyl)sulfonyl]amino}-4-hydroxy-1H-indazol-1-yl)methyl]phenyl}methyl)acetamide] | 3.98 to 15.8 nM | ≤ 126 nM
COc1cccc2c1c(NS(=O)(=O)c1ccc(Cl)s1)nn2Cc1cccc(CNC(=O)C2COCCN2C)c1 (single isomer, unassigned; enantiomer 1) [Example 124, N-[(3-{[3-{[(5-Chloro-2-thienyl)sulfonyl]amino}-4-(methyloxy)-1H-indazol-1-yl]methyl}phenyl)methyl]-4-methyl-3-morpholinecarboxamide Enantiomer 1] | 3.98 to 15.8 nM | ≤ 126 nM
COc1cccc2c1c(NS(=O)(=O)c1ccc(Cl)s1)nn2Cc1cccc(CNC(=O)C(C)(C)C)c1 [Example 4, N-[(3-{[3-{[(5-chloro-2-thienyl)sulfonyl]amino}-4-(methyloxy)-1H-indazol-1-yl]methyl}phenyl)methyl]-2,2-dimethylpropanamide] | 3.98 to 15.8 nM | ≤ 126 nM
COc1cccc2c1c(NS(=O)(=O)c1ccc(Cl)s1)nn2Cc1cccc(CNC(=O)[C@@H]2CCCCN2)c1 [Example 51, (2S)—N-[(3-{[3-{[(5-Chloro-2-thienyl)sulfonyl]amino}-4-(methyloxy)-1H-indazol-1-yl]methyl}phenyl)methyl]-2-piperidinecarboxamide trifluoroacetate] | 3.98 to 15.8 nM | ≤ 126 nM
COc1cccc2c1c(NS(=O)(=O)c1ccc(Cl)s1)nn2Cc1cccc(CNC(=O)CCC(=O)O)c1 [Example 138, 4-{[(3-{[3-{[(5-Chloro-2-thienyl)sulfonyl]amino}-4-(methyloxy)-1H-indazol-1-yl]methyl}phenyl)methyl]amino}-4-oxobutanoic acid] | 3.98 to 15.8 nM | 
COc1cccc2c1c(NS(=O)(=O)c1ccc(Cl)s1)nn2Cc1cccc(CNC(=O)[C@H](N)C(C)C)c1 [Example 48, N^1-[(3-{[3-{[(5-Chloro-2-thienyl)sulfonyl]amino}-4-(methyloxy)-1H-indazol-1-yl]methyl}phenyl)methyl]-D-valinamide] | 3.98 to 15.8 nM | ≤ 126 nM
COc1cccc2c1c(NS(=O)(=O)c1ccc(Cl)s1)nn2Cc1cccc(CNC(=O)[C@H](C)N)c1 [Example 18, N^1-[(3-{[3-{[(5-chloro-2-thienyl)sulfonyl]amino}-4-(methyloxy)-1H-indazol-1-yl]methyl}phenyl)methyl]-L-alaninamide trifluoroacetate] | 3.98 to 15.8 nM | ≤ 126 nM
COc1cc(F)cc2c1c(NS(=O)(=O)c1ccc(Cl)s1)nn2Cc1cccc(CNC(=O)C2COCCN2C)c1 (stereo not drawn) [Example 133, N-[(3-{[3-{[(5-Chloro-2-thienyl)sulfonyl]amino}-6-fluoro-4-(methyloxy)-1H-indazol-1-yl]methyl}phenyl)methyl]-4-methyl-3-morpholinecarboxamide] | 3.98 to 15.8 nM | 
O=C(NCc1cccc(Cn2nc(NS(=O)(=O)c3ccc(Cl)s3)c3c(O)cccc32)c1)C1COCCN1 (stereo not drawn) [Example 73, N-({3-[(3-{[(5-Chloro-2-thienyl)sulfonyl]amino}-4-hydroxy-1H-indazol-1-yl)methyl]phenyl}methyl)-3-morpholinecarboxamide formate salt] | 3.98 to 15.8 nM | ≤ 126 nM
COc1cccc2c1c(NS(=O)(=O)c1ccc(Cl)s1)nn2Cc1cccc(CNC(=O)[C@H]2CC[C@H](C(=O)O)CC2)c1 [Example 143, trans-4-({[(3-{[3-{[(5-Chloro-2-thienyl)sulfonyl]amino}-4-(methyloxy)-1H-indazol-1-yl]methyl}phenyl)methyl]amino}carbonyl)cyclohexanecarboxylic acid] | 3.98 to 15.8 nM | 
CC(=O)NCc1cccc(Cn2nc(NS(=O)(=O)c3ccc(Cl)s3)c3c(CO)cccc32)c1 [Example 148, N-[(3-{[3-{[(5-Chloro-2-thienyl)sulfonyl]amino}-4-(hydroxymethyl)-1H-indazol-1-yl]methyl}phenyl)methyl]acetamide] | 3.98 to 15.8 nM | 
COc1cccc2c1c(NS(=O)(=O)c1ccc(Cl)s1)nn2Cc1cccc(CNC(=O)C(C)(C)N)c1 [Example 127, N^1-[(3-{[3-{[(5-Chloro-2-thienyl)sulfonyl]amino}-4-(methyloxy)-1H-indazol-1-yl]methyl}phenyl)methyl]-2-methylalaninamide] | 3.98 to 15.8 nM | 
COc1cccc2c1c(NS(=O)(=O)c1ccc(Cl)s1)nn2Cc1cccc(CNC(=O)C(C)O)c1 (stereo not drawn) [Example 37, N-[(3-{[3-{[(5-Chloro-2-thienyl)sulfonyl]amino}-4-(methyloxy)-1H-indazol-1-yl]methyl}phenyl)methyl]-2-hydroxypropanamide] | 3.98 to 15.8 nM | ≤ 126 nM
COc1cccc2c1c(NS(=O)(=O)c1cccs1)nn2Cc1cccc(CNC(C)=O)c1 [Example 116, N-{[3-({4-(Methyloxy)-3-[(2-thienylsulfonyl)amino]-1H-indazol-1-yl}methyl)phenyl]methyl}acetamide] | 100 to 398 nM | 
COc1cccc2c1c(NS(=O)(=O)c1ccc(Cl)s1)nn2Cc1cccc(CNC(=O)C2COCCN2)c1 (stereo not drawn) [Example 6, N-[(3-{[3-{[(5-chloro-2-thienyl)sulfonyl]amino}-4-(methyloxy)-1H-indazol-1-yl]methyl}phenyl)methyl]-3-morpholinecarboxamide trifluoroacetate] | 3.98 to 15.8 nM | ≤ 126 nM
COc1cccc2c1c(NS(=O)(=O)c1ccc(Cl)s1)nn2Cc1cccc(CNC(=O)C(C)CN)c1 (stereo not drawn) [Example 26, 3-Amino-N-[(3-{[3-{[(5-chloro-2-thienyl)sulfonyl]amino}-4-(methyloxy)-1H-indazol-1-yl]methyl}phenyl)methyl]-2-methylpropanamide trifluoroacetate] | 3.98 to 15.8 nM | ≤ 126 nM
COc1cccc2c1c(NS(=O)(=O)c1ccc(Cl)s1)nn2Cc1cccc(CNC(=O)[C@@H](N)Cc2c[nH]c3ccccc23)c1 [Example 114, N-[(3-{[3-{[(5-Chloro-2-thienyl)sulfonyl]amino}-4-(methyloxy)-1H-indazol-1-yl]methyl}phenyl)methyl]-L-tryptophanamide] | 3.98 to 15.8 nM | 
COc1cccc2c1c(NS(=O)(=O)c1ccc(Cl)s1)nn2Cc1cccc(CNC(=O)c2ccc(C(=O)O)cc2)c1 [Example 142, 4-({[(3-{[3-{[(5-Chloro-2-thienyl)sulfonyl]amino}-4-(methyloxy)-1H-indazol-1-yl]methyl}phenyl)methyl]amino}carbonyl)benzoic acid] | 3.98 to 15.8 nM | 
COc1cccc2c1c(NS(=O)(=O)c1ccc(Cl)s1)nn2Cc1cccc(CNC(=O)[C@@H](N)CO)c1 [Example 102, N^1-[(3-{[3-{[(5-Chloro-2-thienyl)sulfonyl]amino}-4-(methyloxy)-1H-indazol-1-yl]methyl}phenyl)methyl]-L-serinamide] | 3.98 to 15.8 nM | 
CNCC(=O)NCc1cccc(Cn2nc(NS(=O)(=O)c3ccc(Cl)s3)c3c(OC)cccc32)c1 [Example 85, N^1-[(3-{[3-{[(5-Chloro-2-thienyl)sulfonyl]amino}-4-(methyloxy)-1H-indazol-1-yl]methyl}phenyl)methyl]-N^2-methylglycinamide trifluoroacetate] | 3.98 to 15.8 nM | 
CC(C)(O)c1cccc2c1c(NS(=O)(=O)c1ccc(Cl)s1)nn2Cc1cccc(CNC(=O)[C@@H]2COCCN2)c1 [Example 156, (3S)—N-[(3-{[3-{[(5-Chloro-2-thienyl)sulfonyl]amino}-4-(1-hydroxy-1-methylethyl)-1H-indazol-1-yl]methyl}phenyl)methyl]-3-morpholinecarboxamide] | 100 to 398 nM | 
CC(=O)NCc1cccc(Cn2nc(NS(=O)(=O)c3ccc(Cl)s3)c3c(C(C)O)cccc32)c1 (stereo not drawn) [Example 149, N-[(3-{[3-{[(5-Chloro-2-thienyl)sulfonyl]amino}-4-(1-hydroxyethyl)-1H-indazol-1-yl]methyl}phenyl)methyl]acetamide] | 3.98 to 15.8 nM | 
